Data as given in patent publication EP0573652A1, “REMEDY FOR RENAL DISEASES” (FUJISAWA PHARMACEUTICAL CO., LTD., priority 1991, dated 1992).
Read-outs that look alike come from different tables or passages of the source.

Tests used:
[1] = Acute toxicity test; parameters: species or system rats (Crj:CD(SD) strain); conditions: Crj:CD(SD), rat, in vivo, iv, intravenously, observed for 14 days, probit method, read-out: LD₅₀
Protocol: Five rats (Crj:CD(SD) strain) of either sex were used per group. Solutions of the test compound in physiological saline were administered to rats intravenously. The rats were then observed for 14 days. The LD₅₀ values were calculated by the probit method.

[2] = system: cynomolgus monkeys; experiment: Effects on increasing renal blood flow (anesthetized, furosemide-pretreated monkeys, electromagnetic blood flowmeter); format: in vivo; conditions: Dose 0.32 mg/kg intravenously; anesthetized cynomolgus monkeys given furosemide
Protocol: Male and female cynomolgus monkeys weighing 2.0-4.8 kg were fed with conventional diet were given furosemide 10 mg/kg subcutaneously and 5 mg/kg intravenously on the previous day and the day of dosing with the test compound respectively. The animals were anesthetized with sodium pentobarbital (20 mg/kg, i.v.) and were maintained at a stable anesthetic level by continuous infusion of the anesthetic at a rate of 6 mg/kg/hr. After fixing the animals on the bench at 37°C, right femoral artery was catheterized for recording of the mean arterial blood pressure using a pressure transducer and left femoral vein was also catheterized for injection of the drug. Left renal artery was installed with an electromagnetic probe for recording renal blood flow using an electromagnetic blood flowmeter. When blood pressure, heart rate and renal blood flow, became sufficiently stable, the test compound dissolved in physiological saline was intravenously given at a rate of 0.2 ml/kg.

[3] = system: cynomolgus monkeys; experiment: Diuretic effects (urine volume, urinary electrolytes, renal plasma flow, glomerular filtration rate in anesthetized monkeys); format: in vivo; conditions: at 15 min. after dosing, Control : 100%; for Increasing % of glomerular filtration rate: calculated from inulin concentrations; for Increasing % of renal plasma flow: calculated from paraaminohypuric acid concentrations
Protocol: Female cynomolgus monkeys weighing 3.2 - 3.9 kg were anesthetized with sodium pentobarbital (20 mg/kg, i.v.) and were maintained at a stable anesthetic level by continuous infusion of the anesthetic at a rate of 4 mg/kg/hr, and then right saphenous vein was catheterized for intravenous infusion. […] Under monitoring blood pressure, urine samples were taken from bladder by catheter and blood samples were taken from right brachial vein. After 90 min. when urine volume, blood, paraaminohypuric acid and inulin concentrations became stable, blood and urine samples were taken to measure concentrations of paraaminohypuric acid and inulin 45 min. before and 15, 30, 45 and 60 min. after dosing with the test compound. Urine volume and urinary electrolytes were measured and the renal plasma flow and glomerular filtration rate values were calculated from respective paraaminohypuric acid and inulin concentrations in the blood and urine samples.

Row | SMILES | LD50 at 14 days ([1]; Female rats) | LD50 at 14 days ([1]; Male rats) | Maximum decreasing % of renal vascular resistance [2] | Maximum increasing % of renal blood flow [2] | Increasing % of Cl⁻ excretion ([3]; Dose 1.0 mg/kg) | Increasing % of K⁺ excretion ([3]; Dose 1.0 mg/kg) | Increasing % of Na⁺ excretion ([3]; Dose 1.0 mg/kg) | Increasing % of urine volume ([3]; Dose 1.0 mg/kg) | Increasing % of glomerular filtration rate ([3]; Dose 1.0 mg/kg) | Increasing % of renal plasma flow ([3]; Dose 1.0 mg/kg) | Increasing % of Cl⁻ excretion ([3]; Dose 3.2 mg/kg) | Increasing % of K⁺ excretion ([3]; Dose 3.2 mg/kg) | Increasing % of Na⁺ excretion ([3]; Dose 3.2 mg/kg) | Increasing % of urine volume ([3]; Dose 3.2 mg/kg) | Increasing % of glomerular filtration rate ([3]; Dose 3.2 mg/kg) | Increasing % of renal plasma flow ([3]; Dose 3.2 mg/kg)
1 | CC(C)CC[C@H](O)[C@H](CC1CCCCC1)NC(=O)[C@H](Cc1c[nH]cn1)N(C)C(=O)[C@H](Cc1ccccc1)OC(=O)N(C)CCN(C)C(=O)N1CCOCC1.Cl [(2), 2(S)-[N^α-[2(S)-[N-methyl-N-[2-{N-(morpholinocarbonyl)-N-methylamino)ethyl]aminocarbonyloxy]-3-phenylpropionyl]-N^α-methyl-L-histidyl]amino-1-cyclohexyl-3(S)-hydroxy-6-methylheptane hydrochloride] | 69 mg/kg | 55 mg/kg | +35.5% | +33.8% | 466% | 169% | 205% | 202% | 156% | 169% |  |  |  |  |  | 
2 | CC(C)CC[C@H](O)[C@H](CC1CCCCC1)NC(=O)[C@H](Cc1c[nH]cn1)N(C)C(=O)[C@H](Cc1ccccc1)OC(=O)N(C)CCC(=O)N1CCOCC1.Cl [(1), 2(S)-[N^α-[2(S)-{N-(2-morpholinocarbonylethyl)-N-methylaminocarbonyloxy}-3-phenylpropionyl]-N^α-methyl-L-histidyl]amino-1-cyclohexyl-3(S)-hydroxy-6-methylheptane hydrochloride] | 93.3 mg/kg | 81.2 mg/kg | +19.3% | +17.1% |  |  |  |  |  |  | 417% | 135% | 223% | 259% | 122% | 149%
3 | C[C@H](CS)C(=O)N1CCC[C@H]1C(=O)O [(A), Captopril, reference compound] |  |  | +11.5% |  |  |  |  |  |  |  |  |  |  |  | 114% | 
